From paper PMC7878295 (Gastroenterology, 2020)
Read-outs that look alike come from different tables or passages of the source.

Columns and labels:
lipotoxic HLO = assay: Viability in lipotoxic; type: cell-based
[1] = tested on: human liver organoid (HLO); details: 72 h
[2] = tested on: human liver organoid (HLO)
[3] = tested on: human liver organoid (HLO); assay: Mitochondrial membrane potential; details: treatment for 24h, multiple doses
[4] = Organoid viability after treatment with training compounds; details: human, human liver organoids (HLO)
[5] = tested on: CYP2C9*2 carrier and non-carrier HLO; type: cell-based, human
CYP1A2 = CYP1A2 induction in HLO
BSEP = assay: CLF bile acid transport in HLO; type: cell-based, human; details: normal HLO, viable dosing (100 μM, 200 μM)

CCc1ccc(CCOc2ccc(CC3SC(=O)NC3=O)cc2)nc1 (stereo not drawn) [Pioglitazone]
effect on viability (lipotoxic HLO; 200 μM, 24h, HLO with/without lipotoxic condition): did not affect viability

CC(c1cc2ccccc2s1)N(O)C(N)=O (stereo not drawn) [Zileuton]
concentration at which induced toxicity was detected in cytotoxicity assay [1]: 100 µM

Cc1c(C)c2c(c(C)c1O)CCC(C)(COc1ccc(CC3SC(=O)NC3=O)cc1)O2 (stereo not drawn) [Troglitazone]
cell viability at 72 hours relative to TOL, DICLO and BOS [2]: significantly lowered cell viability

CCN(CC)C(=O)/C(C#N)=C/c1cc(O)c(O)c([N+](=O)[O-])c1 [Entacapone]
increase in MMP [3]: increases in MMP were not clearly observed
viability at 24 h, 130 µM [4]: 85%
viability at 72 h, 130 µM [4]: 64%

COc1ccc2c(c1)c(CC(=O)O)c(C)n2C(=O)c1ccc(Cl)cc1 [Indomethacin]
concentration at which induced toxicity was detected in cytotoxicity assay [1]: 10 µM

COc1ccccc1Oc1c(NS(=O)(=O)c2ccc(C(C)(C)C)cc2)nc(-c2ncccn2)nc1OCCO [Bosentan]
Positive rate of impaired CLF excretion ([5]; CC genotype (CYP2C9 enzyme activity normal) HLO): 17.1 % of positive
Positive rate of impaired CLF excretion ([5]; CT genotype (CYP2C9*2, activity intermediate) HLO): 70.8 % of positive

COc1ccc2[nH]c([S+]([O-])Cc3ncc(C)c(OC)c3C)nc2c1 (stereo not drawn) [Omeprazol, Omeprazole]
CYP1A2 induction response (CYP1A2): major CYP induction responses in HLO

Cc1cc2c(cc1CC(=O)c1sccc1S(=O)(=O)Nc1onc(C)c1Cl)OCO2 [sitaxentan]
CLF transport (BSEP): inhibited CLF transport

CC(=O)N[C@@H](CS)C(=O)O [NAC, N-acetylcysteine]
rescue of cell viability (lipotoxic HLO; lipotoxic HLO treated with Troglitazone): cell viability was significantly improved
